The results in this text go back to patent US11718589B2, “Compositions and methods of modulating short-chain dehydrogenase” (CASE WESTERN RESERVE UNIVERSITY, priority 2017, dated 2023).

One may read the IC50 as the midpoint of a concentration-inhibition curve.

Assay [1] has as its system PGE2 in A549 cell culture. The experiment in a line: Induction of PGE2 in A549 cell culture. It counts as cell-based. The following applies: A549 cells; for induction of PGE2 in A549 cell culture at 0.1 μM (fold): 0.1 μM compound; for induction of PGE2 in A549 cell culture at 2.5 μM (fold): 2.5 μM compound. As to the method:
This Example provides data on two groups (Table 1 and Table 2) of structural analogues of identified 15-PGDH inhibitors. Data provided is the IC50 of each compound for inhibiting enzymatic activity of recombinant 15-PGDH in an in vitro assay. Recombinant 15-PGDH is human unless otherwise specified. Additionally, the example provides data for selected compounds on induction of PGE2 in A549 cell culture administered 2.5 μM or 0.1 μM of the selected compound.

A further assay deals with recombinant 15-PGDH (Homo sapiens (Human), UniProt P15428). The experiment in a line: Enzyme inhibition of recombinant 15-PGDH, in vitro assay. It counts as biochemical. Particulars: recombinant human 15-PGDH; read-out: Enzyme inhibition (IC50).
Chain of recombinant 15-PGDH (P15428 whole entry): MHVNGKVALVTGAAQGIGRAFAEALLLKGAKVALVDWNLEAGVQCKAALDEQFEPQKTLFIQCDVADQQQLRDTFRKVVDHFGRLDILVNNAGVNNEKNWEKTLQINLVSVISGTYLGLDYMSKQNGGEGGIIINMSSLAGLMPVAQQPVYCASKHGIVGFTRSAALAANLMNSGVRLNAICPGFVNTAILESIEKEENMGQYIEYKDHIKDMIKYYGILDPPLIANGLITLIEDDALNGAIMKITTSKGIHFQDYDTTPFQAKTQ

Regarding `COc1ccc(-c2cc(C(F)(F)F)n3nc(C(=O)N4CCCCC4)cc3n2)cc1` [1a], in assay [1], the “induction of PGE2 in A549 cell culture at 0.1 μM (fold)” value (shortened to “induction of PGE2 … at 0.1 μM (fold)”) stood at 1.29 fold and the “induction of PGE2 in A549 cell culture at 2.5 μM (fold)” value (“induction of PGE2 … at 2.5 μM (fold)” below) amounted to 1.89 fold. Further, the 50% inhibitory concentration (IC50) at recombinant 15-PGDH amounted to 24 nM.
As to `O=C(c1ccc2nc(-c3ccccc3)c(-c3ccccc3)nc2c1)N1CCCCC1` [1b], in assay [1], the “induction of PGE2 … at 0.1 μM (fold)” value is listed as 1.11 fold and the “induction of PGE2 … at 2.5 μM (fold)” value worked out at 1.87 fold.
Taken in the same sequence, the figures for `CCCC[S+]([O-])c1cc2nc(-c3ccc(OC)cc3)cc(C(F)(F)F)n2n1` (stereo not drawn) [3a] were 1.45 fold and 2.13 fold.
`CCCC[S+]([O-])c1cc2nc(-c3ccc(OC)cc3)cc(-c3ccccc3)n2n1` (stereo not drawn) [5a]: in assay [1], the “induction of PGE2 … at 0.1 μM (fold)” value was 1.08 fold and the “induction of PGE2 … at 2.5 μM (fold)” value was found to be 1.69 fold.
On to `CCCC[S+]([O-])c1nc2nc(-c3ccc(OC)cc3)cc(C(F)(F)F)n2n1` (stereo not drawn) [49a], for which the IC50 at recombinant 15-PGDH is over 2500 nM.
Consider `CCCC[S+]([O-])c1nc2nc(-c3nccs3)cc(C(F)(F)F)n2n1` (stereo not drawn) [50a], for which, on recombinant 15-PGDH, the IC50 is over 2500 nM.
Same read-out and setting: under `CCCC[S+]([O-])c1cc2nc(-c3ccc(OC)cc3)cc(-c3cccnc3)n2n1` (stereo not drawn) [51a] stands 500 to 2500 nM; under `CCCC[S+]([O-])c1cc2nc(-c3ccc(OC)cc3)cc(-c3cncnc3)n2n1` (stereo not drawn) [52a], 2500 nM.
Still for that read-out and setting: under `CCCC[S+]([O-])c1cc2nc(-c3ccc(OC)cc3)cc(-c3cnn(C)c3)n2n1` (stereo not drawn) [53a] stands 500 to 2500 nM; under `CCCC[S+]([O-])c1cc2nc(-c3ccc(OC)cc3)cc(-c3cccn3C)n2n1` (stereo not drawn) [54a], 4 to 20 nM; under `CCCC[S+]([O-])c1nc2nc(-c3ccc(OC)cc3)cc(-c3ccccc3)n2n1` (stereo not drawn) [55a], over 2500 nM.
The same measure, in the same setting: under `O=C(c1cc2nc(-c3ccc(Cl)cc3)cc(C(F)(F)F)n2n1)N1CCCCC1` [56a] stands over 2500 nM; under `COc1ccc(-c2cc(C(F)(F)F)n3nc(C(=O)N4CC(C)CC(C)C4)cc3n2)cc1` (stereo not drawn) [57a], 100 nM; under `COc1ccc(-c2cc(C(F)(F)F)n3nc(C(=O)N4CCCC(CF)C4)cc3n2)cc1` (stereo not drawn) [58a], 20 to 100 nM.
As to `COc1ccc(-c2cc(C(F)(F)F)n3nc(C(=O)N4CCC(F)(F)CC4)cc3n2)cc1` [59a], the IC50 on recombinant 15-PGDH was in the range of 100 to 500 nM.
On the same count and under the same terms, as for `COc1ccc(-c2cc(C(F)(F)F)n3nc(C(=O)N4CCC(C(F)(F)F)CC4)cc3n2)cc1` [60a], the figure is 500 to 2500 nM; as for `O=C(c1cc2nc(-c3ccccc3)cc(C(F)(F)F)n2n1)N1CCCCC1` [61a], over 2500 nM; as for `COc1ccc(-c2cc(C(F)(F)F)n3nc(C(=O)N4CCCC(=O)C4)cc3n2)cc1` [62a], 500 to 2500 nM.
On the same count and under the same terms, as for `COc1ccc(-c2cc(C(F)(F)F)n3nc(C(=O)N4CCCC(C)(C)C4)cc3n2)cc1` [63a], the figure is 4 to 20 nM.
Same read-out and setting: under `Nc1ccc(-c2cnc3ccc(C(=O)N4CCCCC4)cc3n2)cc1` [63b] stands 4 to 20 nM; under `COc1ccc(-c2cc(C(F)(F)F)n3nc(C(=O)N4CCCC(C(F)(F)F)C4)cc3n2)cc1` (stereo not drawn) [64a], 100 to 500 nM.
Turning to `COc1ccc(-c2cc(C(F)(F)F)n3nc(C(=O)N4CCCC(F)(F)C4)cc3n2)cc1` [65a], the IC50 at recombinant 15-PGDH was found to be 100 nM.
Same read-out and setting: under `COc1ccc(-c2cc(C(F)(F)F)n3nc(C(=O)N4CCCC(C(F)F)C4)cc3n2)cc1` (stereo not drawn) [66a] stands 20 to 100 nM; under `COc1ccc(-c2cc(C3CC3)n3nc(C(=O)N4CCCCC4)cc3n2)cc1` [67a], 4 to 20 nM.
Same read-out and setting: under `O=C(c1cc2nc(-c3ccc(O)cc3)cc(C(F)(F)F)n2n1)N1CCCCC1` [68a] stands over 2500 nM.
Same read-out and setting: under `CCOc1ccc(-c2cc(C(F)(F)F)n3nc(C(=O)N4CCCCC4)cc3n2)cc1` [69a] stands 500 to 2500 nM; under `CCCC[S+]([O-])c1cc2nc(-c3ccc(OC)cc3)cc(-c3cnc(C)n3C)n2n1` (stereo not drawn) [70a], 100 to 500 nM; under `COc1ccc(-c2cc(-c3cccn3C)n3nc(C(=O)N4CCCCC4)cc3n2)cc1` [71a], 20 to 100 nM.
In the case of `CCCC[S+]([O-])c1cc2nc(-c3ccc(OC)cc3)cc(-c3ccnn3C)n2n1` (stereo not drawn) [72a], the IC50 at recombinant 15-PGDH lay in the range of 4 to 20 nM.
The same measure, in the same setting: under `CCCC[S+]([O-])c1cc2nc(-c3ccc(OC)cc3)cc(-c3cn(C)nc3C)n2n1` (stereo not drawn) [73a] stands 500 nM.
For the compound `CCCC[S+]([O-])c1cc2nc(-c3ccc(OC)cc3)cc(-c3c(C)nn(C)c3C)n2n1` (stereo not drawn) [74a], on recombinant 15-PGDH, the IC50 lay within 20 to 100 nM.
For `CC1CCCN(C(=O)c2cc3nc(-c4ccc(Cl)cc4)cc(C(F)(F)F)n3n2)C1` (stereo not drawn) [75a], at recombinant 15-PGDH, the IC50 was 20 to 100 nM.
Regarding `CNC(=O)c1ccc(-c2cnc3ccc(C(=O)N4CCCCC4)cc3n2)cc1` [80b], on recombinant 15-PGDH, the IC50 was 4 nM.
In the case of `CC(C)(O)Cn1ccc2cc(-c3cnc4ccc(C(=O)N5CCCCC5)cc4n3)ccc2c1=O` [89b], the IC50 on recombinant 15-PGDH was about 4 nM.
Consider `Cn1nccc1-c1nc(-c2ccccc2)nc2cc(C(=O)N3CCCCC3)ccc12` [90b], for which, at recombinant 15-PGDH, the IC50 was about 4 nM.
On the same count and under the same terms, as for `CCOC(=O)c1[nH]c2ccc(-c3cnc4ccc(C(=O)N5CCCCC5)cc4n3)cc2c1C` [91b], the figure is about 4 nM; as for `O=C(c1ccc2ncc(-c3ccc4c(=O)[nH]cc(Cl)c4c3)nc2c1)N1CCCCC1` [92b], under 4 nM.
For `Cc1c(C(N)=O)[nH]c2ccc(-c3cnc4ccc(C(=O)N5CCCCC5)cc4n3)cc12` [93b], the IC50 at recombinant 15-PGDH is under 4 nM.
On the same count and under the same terms, as for `CNC(=O)c1[nH]c2ccc(-c3cnc4ccc(C(=O)N5CCCCC5)cc4n3)cc2c1C` [94b], the figure is under 4 nM; as for `Nc1nc2ccc(-c3cnc4ccc(C(=O)N5CCCCC5)cc4n3)cc2s1` [95b], under 4 nM.
